Several values for one entry are separate records, joined by “and”; a condition that tells them apart may be missing. Equal values may be shown once.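 Following 48 hours of exposure in 96-well plates, responses at five concentrations were used to interpolate endpoints linearly. The concentration for 50% growth inhibition is given as GI50. At the TGI there is no net growth.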
What was measured:
Test in all cases: growth of human tumour cells (NCI), 48 h
DU-145 prostate = test system: DU-145 prostate
HCT-116 colon = test system: HCT-116 colon
HOP-62 NSCLC = test system: HOP-62 NSCLC
HOP-92 NSCLC = test system: HOP-92 NSCLC
IGROV1 ovarian = test system: IGROV1 ovarian
NCI-H23 lung = test system: NCI-H23 lung
NCI-H522 lung = test system: NCI-H522 lung
SW-620 colon = test system: SW-620 colon

SMILES	GI50 (DU-145 prostate) [µM]	TGI (DU-145 prostate)	GI50 (HCT-116 colon) [µM]	TGI (HCT-116 colon)	GI50 (HOP-62 NSCLC) [µM]	TGI (HOP-62 NSCLC)	GI50 (HOP-92 NSCLC) [µM]	TGI (HOP-92 NSCLC)	GI50 (IGROV1 ovarian) [µM]	TGI (IGROV1 ovarian)	GI50 (NCI-H23 lung) [µM]	TGI (NCI-H23 lung)	GI50 (NCI-H522 lung) [µM]	TGI (NCI-H522 lung)	GI50 (SW-620 colon) [µM]	TGI (SW-620 colon)
COc1ccc(C(=NN=C(N)N)c2ccc(OC)cc2)cc1	2.6	10.8 µM	3.15	12.4 µM	3.9	15.5 µM	1.9	7.45 µM	2.97	13.7 µM	3.87	17.8 µM	2.9	13.4 µM	3.11	12.4 µM
COc1cc(/C=C/c2cc(/C=C/c3ccc(O)c(OC)c3)n(C(=O)Nc3ccccc3Cl)n2)ccc1O	0.472	1.64 µM	–	–	0.471	1.78 µM	0.349	2.39 µM	0.485	2.39 µM	0.33	2.46 µM	0.112	0.672 µM	0.389	1.69 µM
COc1ccc(CCN(CC(=O)N(CC(N)=O)C2CCC[C@@H]2OCc2ccccc2)C(=O)CN(C(=O)CN(CCc2ccc(Cl)cc2)C(=O)CN(C(=O)CN(C)Cc2ccccc2F)[C@H](C)C2CCCCC2)[C@H](C)C2CCCCC2)cc1OC (some centres undefined)	2.42	> 50 µM	1.6	> 50 µM	3.02	> 50 µM	1.3	31.3 µM	1.68	> 50 µM	3.26	> 50 µM	1.52	32.2 µM	2.56	> 50 µM
COc1cc(N2C(=O)[C@H](c3ccccc3)C2c2ccc(SC)cc2)cc(OC)c1OC (some centres undefined)	0.0373	> 100 µM	0.0317	1.17 µM	0.0788	> 100 µM	0.031	16.5 µM	0.0432	> 100 µM	0.0502	> 100 µM	0.0232	0.0734 µM	0.0382	> 100 µM
COCCOC1=CC(=O)c2c(O)ccc(O)c2C1=O	0.5	2.12 µM and 1.62 µM	1.29	1 µM and 2.64 µM	1.9	1.8 µM and 3.31 µM	1.54	3.7 µM and 3.59 µM	–	3.11 µM and 2.97 µM	1.44	2.43 µM and 3.34 µM	1.69	4.44 µM and 3.37 µM	1.32	6.55 µM and 3.18 µM
CC(C)(C)c1cc(/C=N/NC(=O)c2ccccc2NC(=O)c2cccs2)c(O)c(C(C)(C)C)c1	4.13	> 100 µM	0.713	14.4 µM	0.779	21.6 µM	4.44	80.5 µM	0.683	> 100 µM	1.62	25.5 µM	1.84	30.4 µM	1.38	17.8 µM
COc1cc(-c2nc3sc(C)cn3c2/C=C2\C(=O)Nc3ccccc32)c(Br)c(OC)c1OC	28.5	72.4 µM	26	> 100 µM	26.5	88.7 µM	26.7	77 µM	23.4	> 100 µM	30.9	> 100 µM	22.2	57.3 µM	30.6	> 100 µM
Cc1ccc2cccc(OC(=O)Nc3cccc(C(F)(F)F)c3)c2n1	3.95	82.4 µM	3.27	11.1 µM	5.83	18.6 µM	2.21	6.66 µM	4.29	17.4 µM	2.78	10 µM	–	–	3.46	13.3 µM
Clc1cc(Cl)c(OCCCCCCN2CCNCC2)c(Cl)c1	4.45	15.9 µM	1.67	3.19 µM	10.6	26 µM	2.32	7.64 µM	3.07	8.43 µM	7.31	21.8 µM	11.1	25.4 µM	1.91	3.75 µM
C#CC(=O)Nc1cccc2c1cc(C)n2-c1nc2c(c(NCc3ccccc3)n1)CCCC2	1.18	2.54 µM	0.174	0.415 µM	–	–	0.142	0.315 µM	–	–	–	–	0.0174	0.0372 µM	0.2	0.461 µM
O=C(O)c1cc(=O)cc(C(=O)O)o1	> 100	> 100 µM	> 100	> 100 µM	> 100	> 100 µM	> 100	> 100 µM	> 100	> 100 µM	> 100	> 100 µM	> 100	> 100 µM	> 100	> 100 µM
O=C(COc1cccc(/C=C2\CSc3ccc(Cl)cc3C2=O)c1)c1ccc(Cl)cc1	13.6	27.9 µM	1.5	2.83 µM	22.1	72.7 µM	0.666	9.8 µM	3.29	20.2 µM	12.9	42.5 µM	1.74	4.19 µM	1.67	3.09 µM
COc1cc(CNCCN2C(=O)c3ccc4c5c(ccc(c35)C2=O)C(=O)N(CCNCc2cc(OC)c(OC)c(OC)c2)C4=O)cc(OC)c1OC	0.197	0.743 µM	0.136	0.428 µM	0.28	0.999 µM	–	–	0.296	1.89 µM	0.794	1.78 µM	0.123	0.496 µM	–	–
O=c1c2ccccc2c(/C=N\NC2=NCCN2)c2oc3ccccc3n12	15	34.7 µM	19.1	> 100 µM	28.6	> 100 µM	22.5	51.1 µM	–	–	15.7	37.6 µM	16.2	67.6 µM	22.1	74 µM
CC(=O)CC/C=C(\C)[C@H](O)[C@H](C)C(=O)O[C@H]1C[C@H](C)C=C2C=C[C@@]3(C)O[C@@H](O)CC(=O)[C@]3(C)[C@H]21	0.332	4.16 µM	0.307	1.89 µM	0.492	3.63 µM	1.53	7.06 µM	0.42	3.42 µM	0.384	2.44 µM	0.566	4.19 µM	0.449	9.03 µM
COC(=O)[C@]12CC[C@@H](C)[C@H](C)[C@@H]1C1=CC[C@@H]3[C@@]4(C)C[C@@H](OC(=O)/C=C/c5ccccc5)[C@H](O)[C@@](C)(CO)[C@@H]4[C@H](O)C[C@@]3(C)[C@]1(C)CC2	2.39	5.83 µM	1.95	3.79 µM	1.91	5.43 µM	2.11	6.42 µM	3.61	14 µM	2.8	10.2 µM	1.53	3.36 µM	1.93	4.2 µM
N#CC1=C(N)NC(=S)NC12Nc1ccccc1S2 (centres undefined)	17.2	> 100 µM	> 100	> 100 µM	–	–	22.4	> 100 µM	23.3	> 100 µM	31.4	> 100 µM	21.3	70.5 µM	36.7	> 100 µM

SMILES	GI50 (DU-145 prostate) [µM]	TGI (DU-145 prostate)	GI50 (HCT-116 colon) [µM]	TGI (HCT-116 colon)	GI50 (HOP-62 NSCLC) [µM]	TGI (HOP-62 NSCLC)	GI50 (HOP-92 NSCLC) [µM]	TGI (HOP-92 NSCLC)	GI50 (IGROV1 ovarian) [µM]	TGI (IGROV1 ovarian)	GI50 (NCI-H23 lung) [µM]	TGI (NCI-H23 lung)	GI50 (NCI-H522 lung) [µM]	TGI (NCI-H522 lung)	GI50 (SW-620 colon) [µM]	TGI (SW-620 colon)
Cn1cc(-c2nc(-c3c[nH]c4ncccc34)cs2)c2ccccc21	62.8	> 100 µM	24.2	> 100 µM	19.7	68.4 µM	2.72	36.2 µM	6.66	> 100 µM	4.49	> 100 µM	12.3	> 100 µM	35.9	> 100 µM
COc1ccc(/C=C2\COc3ccc(O)c(O)c3C2=O)c(OC)c1OC	3.64	26 µM	1.75	3.96 µM	3.12	20 µM	2.97	9.91 µM	2.09	7.21 µM	3.22	14.5 µM	0.933	3.22 µM	2.77	9.53 µM
Oc1ccc2ccccc2c1N=Nc1cc(Cl)ccc1Cl	–	–	–	48.1 µM	–	20.8 µM	–	> 50 µM	–	18.1 µM	–	> 50 µM	–	> 50 µM	–	> 50 µM
O=C1C=CC(=C(c2ccccc2)c2ccc(O)cc2)C=C1	–	53.6 µM	–	> 100 µM	–	> 100 µM	–	36.1 µM	–	22.5 µM	–	42.9 µM	–	28.2 µM	–	90.9 µM
CC(C)[C@@](O)(c1ccc2cc(OC(F)F)c(OC(F)F)cc2c1)c1cn[nH]n1	16.7	39.2 µM	17.2	32 µM	15.3	30.7 µM	13.8	30.2 µM	18.7	63.8 µM	14.3	32.2 µM	14.3	32.3 µM	19.7	43.2 µM
Cn1cc(C2=C(c3cn(-c4ccccc4)c4ccccc34)C(=O)NC2=O)c2ccccc21	> 25	> 25 µM	11	> 25 µM	> 25	> 25 µM	> 25	> 25 µM	11.7	> 25 µM	18.8	> 25 µM	6.61	> 25 µM	9.68	> 25 µM
COC(=O)c1ccc(/C=C(\c2ccc([N+](=O)[O-])o2)S(=O)(=O)c2ccc(NC(C)=O)cc2)o1	–	21.9 µM	–	8.39 µM	–	33.4 µM	–	24 µM	–	28.4 µM	–	28.3 µM	–	5.02 µM	–	11.8 µM
Cc1cc(N2CCCCC2)nc(NC2CCCC(Nc3ccnc4cc(Cl)ccc34)C2)n1 (centres undefined)	1.45	3.1 µM	1.02	2.21 µM	1.46	2.91 µM	–	–	–	–	–	–	1.95	3.75 µM	1.49	3.14 µM
CCCCNS(=O)(=O)c1n[nH]c(=O)[nH]c1=O	–	> 100 µM	–	> 100 µM	–	> 100 µM	–	–	–	> 100 µM	–	> 100 µM	–	> 100 µM	–	> 100 µM
Oc1ccc2c3c1OC1c4[nH]ncc4C[C@H]4[C@@H](C2)N(CC2CC2)CC[C@]314 (some centres undefined)	–	> 100 µM	–	> 100 µM	–	> 100 µM	–	> 100 µM	–	> 100 µM	–	> 100 µM	–	> 100 µM	–	–
C=C1C(=O)O[C@H]2[C@H](OC(C)=O)[C@@H](C)CCCC3(C)OC3CCC3(CO3)[C@H](O)C[C@@H]12 (some centres undefined)	3.92	14.3 µM	3.7	13.1 µM	21.4	43 µM	–	–	13.9	38.7 µM	–	–	9.6	28.7 µM	5.16	19.6 µM
COc1ccc(C2CC(c3ccc(Nc4ccnc5cc(Cl)ccc45)cc3)=NN2C=O)cc1 (centres undefined)	38	> 100 µM	9.97	> 100 µM	43.7	> 100 µM	–	–	43.1	> 100 µM	50.6	> 100 µM	–	–	35.8	> 100 µM
CCn1c2ccccc2c(=O)c2c(OC)ccc(OC)c21	–	–	–	> 100 µM	–	> 100 µM	–	98.7 µM	–	> 100 µM	–	> 100 µM	–	> 93.8 µM	–	> 100 µM
CC1(C)N=C(N)N=C(N)N1c1ccc(OCCCNC(=O)Nc2cccc(S(=O)(=O)F)c2)c(Cl)c1	2.87	> 100 µM	0.636	> 100 µM	6.04	> 100 µM	3.06	> 100 µM	0.448	> 100 µM	3.65	> 100 µM	–	–	1.64	> 100 µM
C/C(=N\OCC(O)CNCCSCc1ccccc1)c1ccccc1Cl (centres undefined)	–	52.2 µM	–	54.7 µM	–	38.8 µM	–	28.4 µM	–	–	–	> 100 µM	–	52.8 µM	–	40.6 µM
CCCCCCn1c(SC)nc(COC(=O)NC)c1COC(=O)NC	–	30.1 µM	–	31.7 µM	–	37.1 µM	–	–	–	30.5 µM	–	41.2 µM	–	23.5 µM	–	64.4 µM
O=C(O)c1ccc(C(O)(c2ccccc2)c2ccccc2)cc1	–	> 100 µM	–	> 100 µM	–	> 100 µM	–	–	–	> 100 µM	–	> 100 µM	–	> 100 µM	–	–
